Read-outs that look alike come from different tables or passages of the source.
Test system: HepG2 cells
Assay: Oxygen consumption rate
Assay type: cell-based, Human
Settings: for Relative percentage OCR 30 Sec: HepG2, 30 sec after compound at its MMP IC50; for Relative percentage OCR 30 Sec / Relative percentage OCR 1 h: basal OCR = 100%, mean ± SD; for Relative percentage OCR 1 h: HepG2, 1 h after compound at its MMP IC50
[1] = HepG2, compound at its MMP IC50, 30 sec and 1 h, then FCCP

## CCCCCCCCCc1ccc(O)cc1 [p -n -Nonylphenol]
  Relative percentage OCR 30 Sec: 116.61 ± 6.28%
  Relative percentage OCR 1 h: 131.32 ± 0.61%

## c1ccc(Nc2ccc3ccccc3c2)cc1 [N-Phenyl-2-naphthylamine]
  Relative percentage OCR 30 Sec: 103.45 ± 2.35%
  Relative percentage OCR 1 h: 120.42 ± 0.94%

## Oc1ccc(Cl)cc1Sc1cc(Cl)ccc1O [2,2'-Thiobis(4-chlorophenol)]
  Relative percentage OCR 30 Sec: 273.19 ± 70.36%
  Relative percentage OCR 1 h: 191.27 ± 0.92%

## Oc1ccc(Cl)cc1Cc1cc(Cl)ccc1O [2,2'-Methylenebis-(4-chlorophenol)]
  Relative percentage OCR 30 Sec: 170.42 ± 33.35%
  Relative percentage OCR 1 h: 168.27 ± 1.85%

## O=C1C2CC=CCC2C(=O)N1SC(Cl)(Cl)Cl (stereo not drawn) [Captan]
  Relative percentage OCR 30 Sec: 110.37 ± 7.97%
  Relative percentage OCR 1 h: 128.41 ± 0.77%

## CC/C(=C(/CC)c1ccc(O)cc1)c1ccc(O)cc1 [Diethylstilbestrol [DES], Diethylstilbestrol, reference compound]
  Effect on OCR / FCCP-uncoupled OCR (in words): depressed both basal and FCCP uncoupled rates

## CC(=O)Oc1ccccc1C(=O)Nc1ncc([N+](=O)[O-])s1 [Nitazoxanide, reference compound]
  Relative percentage OCR 30 Sec: 277.15 ± 15.64%
  Relative percentage OCR 1 h: 199.34 ± 2.37%

## Cc1cc2nc3c(=O)[nH]c(=O)nc-3n(C[C@H](O)[C@H](O)[C@H](O)CO)c2cc1C [Riboflavin]
  Relative percentage OCR 30 Sec: 103.69 ± 0.37%
  Relative percentage OCR 1 h: 115.15 ± 0.4%

## C[C@H]1CCCC(=O)CCC/C=C/c2cc(O)cc(O)c2C(=O)O1 [Zearalenone]
  Relative percentage OCR 30 Sec: 77.68 ± 2.39%
  Relative percentage OCR 1 h: 109.62 ± 0.57%
[1]
  Effect on OCR / FCCP-uncoupled OCR (in words): depressed both basal and FCCP uncoupled rates

## Clc1ccc(C(c2ccccc2Cl)C(Cl)Cl)cc1 (stereo not drawn) [o,p'-DDD (Mitotane), 1,1-dichloro-2-(o-chlorophenyl)-2-(p-chlorophenyl) ethane, reference compound]
  Relative percentage OCR 30 Sec: 102.84 ± 1.36%
  Relative percentage OCR 1 h: 114.22 ± 0.42%

## O=C(Nc1ccccc1)Nc1ccccc1 [Diphenylurea]
  Relative percentage OCR 30 Sec: 97.02 ± 4.18%
  Relative percentage OCR 1 h: 143.97 ± 1.85%

## Nc1ccc(O)cc1 [p-Aminophenol]
  Relative percentage OCR 30 Sec: 100.52 ± 5.81%
  Relative percentage OCR 1 h: 158.18 ± 3.31%

## O=C=Nc1ccc(Cl)c(Cl)c1 [3,4-Dichlorophenyl isocyanate]
  Relative percentage OCR 30 Sec: 102.45 ± 10.76%
  Relative percentage OCR 1 h: 236.03 ± 4.84%

## COc1cc(/C=C/C(=O)CC(=O)/C=C/c2ccc(O)c(OC)c2)ccc1O [Curcumin]
  Relative percentage OCR 30 Sec: 86 ± 3.54%
  Relative percentage OCR 1 h: 94.85 ± 0.67%
[1]
  Effect on OCR / FCCP-uncoupled OCR (in words): significantly suppressed the FCCP uncoupled rates

## CC(C)(c1ccccc1)c1ccc(O)cc1 [4-Cumylphenol]
  Relative percentage OCR 30 Sec: 111.24 ± 4.51%
  Relative percentage OCR 1 h: 121.31 ± 0.33%

## Nc1ccc2c(c1)C(=O)c1ccccc1C2=O [2-Aminoanthraquinone]
  Relative percentage OCR 30 Sec: 97.54 ± 0.63%
  Relative percentage OCR 1 h: 106.44 ± 0.61%

## Oc1cc(Cl)c(Cl)c(Cl)c1 [3,4,5-Trichlorophenol]
  Relative percentage OCR 30 Sec: 163.21 ± 18.34%
  Relative percentage OCR 1 h: 173.49 ± 1.32%

## CC1=C(/C=C/C(C)=C/C=C/C(C)=C/C(=O)Nc2ccc(O)cc2)C(C)(C)CCC1 [4-Hydroxyphenyl retinamide]
  Relative percentage OCR 30 Sec: 96.31 ± 1.42%
  Relative percentage OCR 1 h: 98.83 ± 0.42%
[1]
  Effect on OCR / FCCP-uncoupled OCR (in words): significantly suppressed the FCCP uncoupled rates

## O=c1c(-c2ccc(O)cc2)coc2cc(O)cc(O)c12 [Genistein (4',5,7-Trihydroxyisoflavone), 4',5,7-Trihydroxyisoflavone]
  Relative percentage OCR 30 Sec: 90.18 ± 3.05%
  Relative percentage OCR 1 h: 105.21 ± 0.19%

## CN(C)c1ccc(N=NS(=O)(=O)O)cc1 [Formulated fenaminosulf (Dexon), fenaminosulf]
  Relative percentage OCR 30 Sec: 102.48 ± 0.9%
  Relative percentage OCR 1 h: 110.45 ± 0.28%
